The values that follow are results of earlier work, collected in US7582301B1, “Long-lasting antiviral fusion inhibitor peptide conjugates comprising albumin and human immunodeficiency virus (HIV) peptides” (Conjuchem Biotechnologies, Inc., priority 2000, dated 2009).

Like-named read-outs stand apart in the source and are kept apart here.

Data set [1] concerns respiratory syncytial virus (RSV). Particulars: RSV-infected and uninfected Hep-2 cells; for inhibition of viral infection of RSV, including fusion and syncytia formation: result in words.
Data set [2] concerns simian immunodeficiency virus (SIV). Conditions: as crude peptides; result in words.
Another data set concerns HPIV-3. Conditions: for inhibition of viral infection of HPIV3, including fusion and syncytia formation: result in words, HPIV3-infected Hep2 cells and uninfected CV-1W cells.
The test system of the next data set is measles virus (MeV). Particulars: result in words; MeV-infected and uninfected Vero cells.
The next data set deals with HIV-1. Conditions: result in words.
For data set [3] the following is noted: result in words.

Turning to “IALLSTNKAVVSLSNGVSVLTSKVLDLKNYIDK [SEQ ID NO:29, anti-RSV peptide from the F1 region of RSV]”, in data set [1], the “concentration inhibiting fusion and syncytia formation” value is recorded as “less than 50 μg/ml”; the “inhibition of viral infection of RSV, including fusion and syncytia formation” value (shortened to “inhibition of viral infection of RSV”) was “inhibits viral infection”. “WERKVDFLEENITALLEEAQIQQEKNMYELQKLNS [SEQ ID NO:67]”: the anti-SIV activity entry in data set [2] is given as “potent antiviral activity”. For “YTSVITIELSNIKENKCNGAKVKLIKQELDKYK (YTSVITIELSNIKENKCNGDAKVKLIKQELDKYK) [SEQ ID NO:14, anti-RSV peptide from the F2 region of RSV]”, the “inhibition of viral infection of RSV” value in data set [1] is “inhibits viral infection”. On to “VEAKQARSDIEKLKEAIRDTNKAVQSVQSSIGNLI [SEQ ID NO:52]”, for which, in the data set with HPIV-3, the “inhibition of viral infection of HPIV3, including fusion and syncytia formation” value (from here on “inhibition of viral infection of HPIV3”) is recorded as “inhibits viral infection”. “DPIDISIELNKAKSDLEESKEWIRRSNQKLDSIGN (LDPIDISIELNKAKSDLEESKEWIRRSNQKLDSIG) [SEQ ID NO:40, anti-HPIV-3 peptide, DP178-like]”: the “inhibition of viral infection of HPIV3” value in the data set with HPIV-3 is listed as “inhibits viral infection”. With “IDLGPPISLERLDVGTNLGNAIAKLEAKELLESS [SEQ ID NO:79]”, in the data set on measles virus (MeV), the “inhibition of viral infection of MeV, including fusion and syncytia formation” value (shortened to “inhibition of viral infection of MeV”) is given as “inhibits viral infection”. For “RSDIEKLKEAIRDTNKAVQSVQSSIGNLIVAIKSV [SEQ ID NO:58]”, the “inhibition of viral infection of HPIV3” value in the data set with HPIV-3 is “inhibits viral infection”.

“LDPIDISIELNKAKSDLEESKEWIRRSNQKLDSIG (ALDPIDISIELNKAKSDLEESKEWIRRSNQKLDSI) [SEQ ID NO:39, anti-HPIV-3 peptide, DP178-like]”: the “inhibition of viral infection of HPIV3” value in the data set with HPIV-3 was “inhibits viral infection”. As to “WQEWERKVDFLEENITALLEEAQIQQEKNMYELQK [SEQ ID NO:64]”, in data set [2], the anti-SIV activity entry is on record as “potent antiviral activity”. On to “RKVDFLEENITALLEEAQIQQEKNMYELQKLNSWD [SEQ ID NO:69]”, for which the anti-SIV activity result in data set [2] was “potent antiviral activity”.

In the case of “NNLLRAIEAQQHLLQLTVWQIKQLQARILAVERYLKDQ [DP107]”, the “anti-HIV-1 activity (inhibition of HIV-1 infection and fusion)” value with HIV-1 (listed as DP-107) is given as “potent inhibitors”. “PIDISIELNKAKSDLEESKEWIRRSNQKLDSIGNW (DPIDISIELNKAKSDLEESKEWIRRSNQKLDSIGN) [SEQ ID NO:41, anti-HPIV-3 peptide, DP178-like]”: in the data set with HPIV-3, the “inhibition of viral infection of HPIV3” value is reported as “inhibits viral infection”.

For enfuvirtide, the “anti-HIV-1 activity (inhibition of HIV-1 infection and fusion)” value in the data set on HIV-1 (listed as DP-178) is given as “potent inhibitors”. Regarding “ALDPIDISIELNKAKSDLEESKEWIRRSNQKLDSI (VALDPIDISIELNKAKSDLEESKEWIRRSNQKLDS) [SEQ ID NO:38, anti-HPIV-3 peptide, DP178-like]”, the “inhibition of viral infection of HPIV3” value in the data set on HPIV-3 is “inhibits viral infection”. In the case of “DFLEENITALLEEAQIQQEKNMYELQKLNSWDVFG [SEQ ID NO:72]”, the anti-SIV activity result in data set [2] is “potent antiviral activity”. As for “PISLERLDVGTNLGNAIAKLEAKELLESSDQILR [SEQ ID NO:84]”, the “inhibition of viral infection of MeV” value in the data set with measles virus (MeV) is reported as “inhibits viral infection”.

Take “NSVALDPIDISIELNKAKSDLEESKEWIRRSNQKL (NNSVALDPIDISIELNKAKSDLEESKEWIRRSNQK) [SEQ ID NO:35, anti-HPIV-3 peptide, DP178-like]”: the “concentration inhibiting fusion and syncytia formation” value in the data set on HPIV-3 (HPIV-3-infected Hep2 cells and uninfected CV-1W cells) is listed as “less than 1 μg/ml”. Further, the “inhibition of viral infection of HPIV3” value in the data set with HPIV-3 is on record as “inhibits viral infection”.

As for “SEQ ID NO:8: analog peptide demonstrated to exhibit anti-viral activity; sequence not printed in the text (CGGNNLLRAIEAQQHLLQLTVWGIKQLQARILAVERYLKDQ)”, the anti-viral activity entry in data set [3] is on record as “exhibit anti-viral activity”. With “IDISIELNKAKSDLEESKEWIRRSNQKLDSIGNWH (PIDISIELNKAKSDLEESKEWIRRSNQKLDSIGNW) [SEQ ID NO:42, anti-HPIV-3 peptide, DP178-like]”, in the data set with HPIV-3, the “inhibition of viral infection of HPIV3” value is given as “inhibits viral infection”. For “ERKVDFLEENITALLEEAQIQQEKNMYELQKLNSW [SEQ ID NO:68]”, in data set [2], the anti-SIV activity result is “potent antiviral activity”. For “VDFLEENITALLEEAQIQQEKNMYELQKLNSWDVF [SEQ ID NO:71]”, in data set [2], the anti-SIV activity result is reported as “potent antiviral activity”. Regarding “VITIELSNIKENKCNGAKVKLIKQELDKYKNAV (VITIELSNIKENKCNGDAKVKLIKQELDKYKNAV) [SEQ ID NO:16, anti-RSV peptide from the F2 region of RSV]”, the “inhibition of viral infection of RSV” value in data set [1] is listed as “inhibits viral infection”. For the substance “FLEENITALLEEAQIQQEKNMYELQKLNSWDVFGN [SEQ ID NO:73]”, the anti-SIV activity result in data set [2] was “potent antiviral activity”. For the substance “KVDFLEENITALLEEAQIQQEKNMYELQKLNSWDV [SEQ ID NO:70]”, the anti-SIV activity entry in data set [2] is recorded as “potent antiviral activity”. For “HRIDLGPPISLERLDVGTNLGNAIAKLEAKELLE [SEQ ID NO:77]”, the “inhibition of viral infection of MeV” value in the data set on measles virus (MeV) is listed as “inhibits viral infection”.

“EWERKVDFLEENITALLEEAQIQQEKNMYELQKLN [SEQ ID NO:66]”: in data set [2], the anti-SIV activity result is reported as “potent antiviral activity”. In the case of “TSVITIELSNIKENKCNGAKVKLIKQELDKYKN (TSVITIELSNIKENKCNGDAKVKLIKQELDKYKN) [SEQ ID NO:15, anti-RSV peptide from the F2 region of RSV]”, in data set [1], the “inhibition of viral infection of RSV” value is reported as “inhibits viral infection”.

With “QEWERKVDFLEENITALLEEAQIQQEKNMYELQKL [SEQ ID NO:65]”, in data set [2], the anti-SIV activity entry is recorded as “potent antiviral activity”.
